For 37 compounds, GI50 results are on record in patent US20240174603A1 (Rappta Therapeutics Oy, priority 2021, published 2024).

The subject of one assay is LNCaP cells. Put plainly: LNCaP cell viability assay (MTS). It is filed as cell-based. The conditions noted are these: Homo sapiens, LNCaP cell line, 48 hours. The procedure, abridged: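 LNCaP cells (5000/well) treated 24 h after plating with compound at 1–80 µM for 48 h. Relative cell number read by MTS; GI50 from four-parameter variable-slope log(inhibitor) fit with bottom constrained to zero.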
The GI50 is the concentration at which growth is held to half of that of the control. On to `O=S(=O)(NC(CN1CCCC1)c1ccc(Cl)cc1)c1ccc(OC(F)(F)F)cc1` (stereo not shown) [Compound 181, N-(1-(4-chlorophenyl)-2-(pyrrolidin-1-yl)ethyl)-4-(trifluoromethoxy)benzenesulfonamide], for which the concentration for 50% growth inhibition (GI50) was 51.4 µM.

Regarding `O=S(=O)(NC(CN1CCCCC1)c1ccc(Cl)cc1)c1ccc(OC(F)(F)F)cc1` (stereo not shown) [Compound 183, N-(1-(4-chlorophenyl)-2-(piperidin-1-yl)ethyl)-4-(trifluoromethoxy)benzenesulfonamide], the GI50 worked out at 33.8 µM.

Staying with this assay, now noted: Homo sapiens, LNCaP, 48 h, LNCaP cell line.
As for `CN(C)CC(NS(=O)(=O)c1cccc(C(F)(F)F)c1)c1ccc(Cl)c(Cl)c1` (stereo not shown) [Compound 162, N-(1-(3,4-dichlorophenyl)-2-(dimethylamino)ethyl)-3-(trifluoromethyl)benzenesulfonamide], the GI50 is 52.7 µM. This lies in the double-digit micromolar range.

`CN(C)CC(NS(=O)(=O)c1cccc(Cl)c1)c1ccc(Cl)c(Cl)c1` (stereo not shown) [Compound 163, 3-chloro-N-(1-(3,4-dichlorophenyl)-2-(dimethylamino)ethyl)benzenesulfonamide] returned a GI50 of 46 µM.

As for `CN(C)CC(NS(=O)(=O)c1ccc(Cl)cc1)c1ccc(Cl)c(Cl)c1` (stereo not shown) [Compound 164, 4-chloro-N-(1-(3,4-dichlorophenyl)-2-(dimethylamino)ethyl)benzenesulfonamide], the GI50 worked out at 28.2 µM.

With `CN(C)CC(NS(=O)(=O)c1ccc(OC(F)(F)F)cc1)c1cccc(Cl)c1` (stereo not shown) [Compound 166, N-(1-(3-chlorophenyl)-2-(dimethylamino)ethyl)-4-(trifluoromethoxy)benzenesulfonamide], the GI50 was 44.5 µM.

On to `CN(C)CC(NS(=O)(=O)c1ccc(OC(F)(F)F)cc1)c1ccc(F)c(Cl)c1` (stereo not shown) [Compound 167, N-(1-(3-chloro-4-fluorophenyl)-2-(dimethylamino)ethyl)-4-(trifluoromethoxy)benzenesulfonamide], for which the GI50 is 42.4 µM.

`CN(C)CC(NS(=O)(=O)c1ccc(OC(F)(F)F)cc1)c1ccc(Cl)c(F)c1` (stereo not shown) [Compound 168, N-(1-(4-chloro-3-fluorophenyl)-2-(dimethylamino)ethyl)-4-(trifluoromethoxy)benzenesulfonamide] registered a GI50 of 24.7 µM.

`O=S(=O)(NC(CN1CCOCC1)c1ccc(Cl)c(Cl)c1)c1ccc(OC(F)(F)F)cc1` (stereo not shown) [Compound 169, N-(1-(3,4-dichlorophenyl)-2-morpholinoethyl)-4-(trifluoromethoxy)benzenesulfonamide] yielded a GI50 of 53.7 µM.

On to `CN(C)CC(NS(=O)(=O)/C=C/c1ccccc1)c1ccc(Cl)c(Cl)c1` (stereo not shown) [Compound 174, (E)-N-(1-(3,4-dichlorophenyl)-2-(dimethylamino)ethyl)-2-phenylethene-1-sulfonamide], for which growth was halved (GI50) at 30.9 µM.

The compound `CN(C)CC(NS(=O)(=O)c1ccc(OC(F)(F)F)c([N+](=O)[O-])c1)c1ccc(Cl)c(Cl)c1` (stereo not shown) [Compound 175, N-(1-(3,4-dichlorophenyl)-2-(dimethylamino)ethyl)-3-nitro-4-(trifluoromethoxy)benzenesulfonamide] gave a GI50 of 3.23 µM. This GI50 lies about 9.6-fold lower than the previous one.

For the compound `CN(C)CC(NS(=O)(=O)c1ccc(OC(F)(F)F)c(N)c1)c1ccc(Cl)c(Cl)c1` (stereo not shown) [Compound 176, 3-amino-N-(1-(3,4-dichlorophenyl)-2-(dimethylamino)ethyl)-4-(trifluoromethoxy)benzenesulfonamide], the GI50 was 31.4 µM. Compared with the last compound, the GI50 is about 9.7-fold higher.

The compound `O=S(=O)(NC(CN1CCCC1)c1ccc(Cl)c(Cl)c1)c1ccc(OC(F)(F)F)cc1` (stereo not shown) [Compound 182, N-(1-(3,4-dichlorophenyl)-2-(pyrrolidin-1-yl)ethyl)-4-(trifluoromethoxy)benzenesulfonamide] registered a GI50 of 24.5 µM.

On to `CN1CCN(CC(NS(=O)(=O)c2ccc(OC(F)(F)F)cc2)c2ccc(Cl)cc2)CC1` (stereo not shown) [Compound 184, N-(1-(4-chlorophenyl)-2-(4-methylpiperazin-1-yl)ethyl)-4-(trifluoromethoxy)benzenesulfonamide], for which it took 23.4 µM to inhibit growth by half (GI50).

With `CN1CCN(CC(NS(=O)(=O)c2ccc(OC(F)(F)F)cc2)c2ccc(Cl)c(Cl)c2)CC1` (stereo not shown) [Compound 185, N-(1-(3,4-dichlorophenyl)-2-(4-methylpiperazin-1-yl)ethyl)-4-(trifluoromethoxy)benzenesulfonamide], halving of growth (GI50) required 12.6 µM.

The compound `CN(C)CC(NS(=O)(=O)c1ccc(C(=O)Nc2ccccc2)cc1)c1ccc(Cl)c(Cl)c1` (stereo not shown) [Compound 186, 4-(N-(1-(3,4-dichlorophenyl)-2-(dimethylamino)ethyl)sulfamoyl)-N-phenylbenzamide] yielded a GI50 of 48.2 µM. Against the preceding compound, the GI50 is about 3.8-fold higher.

`CN(C)CC(NS(=O)(=O)c1ccc(C(=O)NC2CCCCC2)cc1)c1ccc(Cl)c(Cl)c1` (stereo not shown) [Compound 187, N-cyclohexyl-4-(N-(1-(3,4-dichlorophenyl)-2-(dimethylamino)ethyl)sulfamoyl)benzamide] showed a GI50 of 53.6 µM. This GI50 and that of the compound before are within 1.5-fold of each other.

In turn, `CN(C)CC(NS(=O)(=O)c1ccc(Nc2ccccc2)cc1)c1ccc(Cl)c(Cl)c1` (stereo not shown) [Compound 188, N-(1-(3,4-dichlorophenyl)-2-(dimethylamino)ethyl)-4-(phenylamino)benzenesulfonamide] displayed a GI50 of 13.6 µM.

With `CN(C)CC(NS(=O)(=O)c1ccc(Oc2ccccc2)cc1)c1cccc(C(F)(F)F)c1` (stereo not shown) [Compound 189, N-(2-(dimethylamino)-1-(3-(trifluoromethyl)phenyl)ethyl)-4-phenoxybenzenesulfonamide], halving of growth (GI50) required 12.1 µM.

In the case of `CN(C)CC(NS(=O)(=O)c1ccc(Oc2ccccc2)cc1)c1ccc(Cl)cc1` (stereo not shown) [Compound 190, N-(1-(4-chlorophenyl)-2-(dimethylamino)ethyl)-4-phenoxybenzenesulfonamide], it took 11.8 µM to inhibit growth by half (GI50).

In turn, `CN(C)CC(NS(=O)(=O)c1ccc(OC(F)(F)F)c(Cl)c1)c1cccc(C(F)(F)F)c1` (stereo not shown) [Compound 191, 3-chloro-N-(2-(dimethylamino)-1-(3-(trifluoromethyl)phenyl)ethyl)-4-(trifluoromethoxy)benzenesulfonamide] came in with a GI50 of 16.5 µM. This GI50 and that of the compound before are within 1.5-fold of each other.

Consider `CN(C)CC(NS(=O)(=O)c1ccc(OC(F)(F)F)c(Cl)c1)c1ccc(Cl)cc1` (stereo not shown) [Compound 192, 3-chloro-N-(1-(4-chlorophenyl)-2-(dimethylamino)ethyl)-4-(trifluoromethoxy)benzenesulfonamide], for which the GI50 was found to be 14.4 µM.

The compound `CN(C)CC(NS(=O)(=O)c1ccc(Oc2ccc(C(F)(F)F)cc2)cc1)c1cccc(C(F)(F)F)c1` (stereo not shown) [Compound 193, N-(2-(dimethylamino)-1-(3-(trifluoromethyl)phenyl)ethyl)-4-(4-(trifluoromethyl)phenoxy)benzenesulfonamide] gave a GI50 of 19.6 µM.

`CN(C)CC(NS(=O)(=O)c1ccc(Oc2ccc(C(F)(F)F)cc2)cc1)c1ccc(Cl)cc1` (stereo not shown) [Compound 194, N-(1-(4-chlorophenyl)-2-(dimethylamino)ethyl)-4-(4-(trifluoromethyl)phenoxy)benzenesulfonamide] registered a GI50 of 12.2 µM.

In the case of `CN(C)CC(NS(=O)(=O)c1ccc(OC(F)(F)F)c([N+](=O)[O-])c1)c1cccc(C(F)(F)F)c1` (stereo not shown) [Compound 205, N-(2-(dimethylamino)-1-(3-(trifluoromethyl)phenyl)ethyl)-3-nitro-4-(trifluoromethoxy)benzenesulfonamide], growth was halved (GI50) at 2.27 µM.

As to `CN(C)CC(NS(=O)(=O)c1ccc(OC(F)(F)F)c([N+](=O)[O-])c1)c1ccc(Cl)cc1` (stereo not shown) [Compound 206, N-(1-(4-chlorophenyl)-2-(dimethylamino)ethyl)-3-nitro-4-(trifluoromethoxy)benzenesulfonamide], halving of growth (GI50) required 1.77 µM.

Consider `CN(C)CC(NS(=O)(=O)c1ccc(OCC2CC2)cc1)c1ccc(Cl)c(Cl)c1` (stereo not shown) [Compound 207, 4-(cyclopropylmethoxy)-N-(1-(3,4-dichlorophenyl)-2-(dimethylamino)ethyl)benzenesulfonamide], for which the GI50 was 21.8 µM.

The compound `CC(C)Oc1ccc(S(=O)(=O)NC(CN(C)C)c2ccc(Cl)c(Cl)c2)cc1` (stereo not shown) [Compound 208, N-(1-(3,4-dichlorophenyl)-2-(dimethylamino)ethyl)-4-isopropoxybenzenesulfonamide] came in with a GI50 of 25.4 µM.

For the compound `CN(C)CC(NS(=O)(=O)c1ccc(OC2CCCCC2)cc1)c1ccc(Cl)c(Cl)c1` (stereo not shown) [Compound 209], the GI50 came out at 11.1 µM.

`CN(C)CC(NS(=O)(=O)c1ccc(OC2CCCC2)cc1)c1ccc(Cl)c(Cl)c1` (stereo not shown) [Compound 210, 4-(cyclopentyloxy)-N-(1-(3,4-dichlorophenyl)-2-(dimethylamino)ethyl)benzenesulfonamide] registered a GI50 of 12.5 µM. This GI50 and that of the compound before are within 1.5-fold of each other.

As for `CN(C)CC(NS(=O)(=O)c1ccc(Oc2ccccn2)cc1)c1ccc(Cl)c(Cl)c1` (stereo not shown) [Compound 211, N-(1-(3,4-dichlorophenyl)-2-(dimethylamino)ethyl)-4-(pyridin-2-yloxy)benzenesulfonamide], the GI50 was 75 µM.

The compound `CCc1ccc(S(=O)(=O)NC(CN(C)C)c2ccc(Cl)c(Cl)c2)cc1` (stereo not shown) [Compound 212, N-(1-(3,4-dichlorophenyl)-2-(dimethylamino)ethyl)-4-ethylbenzenesulfonamide] had a GI50 of 34.6 µM.

Consider `CC(C)c1ccc(S(=O)(=O)NC(CN(C)C)c2ccc(Cl)c(Cl)c2)cc1` (stereo not shown) [Compound 213, N-(1-(3,4-dichlorophenyl)-2-(dimethylamino)ethyl)-4-isopropylbenzenesulfonamide], for which the GI50 came out at 25.2 µM.

The compound `CCCCc1ccc(S(=O)(=O)NC(CN(C)C)c2ccc(Cl)c(Cl)c2)cc1` (stereo not shown) [Compound 214, 4-butyl-N-(1-(3,4-dichlorophenyl)-2-(dimethylamino)ethyl)benzenesulfonamide] yielded a GI50 of 11.3 µM.

The compound `CCCCCc1ccc(S(=O)(=O)NC(CN(C)C)c2ccc(Cl)c(Cl)c2)cc1` (stereo not shown) [Compound 215, N-(1-(3,4-dichlorophenyl)-2-(dimethylamino)ethyl)-4-pentylbenzenesulfonamide] gave a GI50 of 7.5 µM.

In the case of `CN(C)CC(NS(=O)(=O)c1ccc(C2=CCOCC2)cc1)c1ccc(Cl)c(Cl)c1` (stereo not shown) [Compound 216, N-(1-(3,4-dichlorophenyl)-2-(dimethylamino)ethyl)-4-(3,6-dihydro-2H-pyran-4-yl)benzenesulfonamide], the GI50 was 8.18 µM.

With `CN(C)CC(NS(=O)(=O)c1ccc(Cl)c(F)c1)c1ccc(Cl)c(Cl)c1` (stereo not shown) [Compound 217, 4-chloro-N-(1-(3,4-dichlorophenyl)-2-(dimethylamino)ethyl)-3-fluorobenzenesulfonamide], the GI50 is 49.5 µM.
